The values below come from article PMC11173647, “Anti-Inflammatory Activity of Pyrazolo[1,5-a]quinazolines” (Molecules, 2024).

Read-outs that look alike come from different tables or passages of the source.

The target in one data set is 5-lipoxygenase (5-LOX). Also on record: method as in PMID 32696514. The following applies: cited from earlier work.
The next data set relates to cyclooxygenase 2 (COX-2). On the set-up: method as in PMID 32696514. The settings on record: cited from earlier work.
Data set [1] concerns carrageenan-induced paw edema. On the set-up: method as in PMID 32696514. The following applies: carrageenan-induced paw edema model, 10 mg/kg; cited from earlier work. In general terms: In the carrageenan paw model, swelling and tenderness develop within hours.
Data set [2] relates to gastric ulcerogenic effects. On the set-up: method as in PMID 32696514. The settings on record: in vivo; cited from earlier work.
A further data set addresses T1, JNK2 (Homo sapiens, UniProt P45984).
T1 construct: purchased Eurofins Pharma Discovery (KINOMEscan)
The data set is described as follows: KINOMEscan ATP site-dependent binding assay. The settings on record: duplicate. The method, then:
(§1) Binding reactions were performed at room temperature for 1 h, and the fraction of kinase not bound to the test compound was determined by capture with an immobilized affinity ligand and quantified by quantitative polymerase chain reaction. The primary screening at fixed concentrations of the compound was performed in duplicate.

Another data set has as its target T2, JNK1 (Homo sapiens, UniProt P45983).
T2 construct: purchased Eurofins Pharma Discovery (KINOMEscan)
The experiment in a line: KINOMEscan ATP site-dependent binding assay. The settings on record: duplicate. The method, then: as §1

The target of the next data set is T3, JNK3 (Homo sapiens, UniProt P53779).
T3 construct: purchased Eurofins Pharma Discovery (KINOMEscan)
The data set is described as follows: KINOMEscan ATP site-dependent binding assay. The settings on record: duplicate. The protocol: as §1

Data set [3] deals with LPS-induced NF-κB/AP-1 transcriptional activity in THP-1Blue cells. The experiment in a line: LPS-induced NF-κB/AP-1 reporter (secreted alkaline phosphatase) activity in THP-1Blue cells. The data set is classed as cell-based, human. The settings on record: THP-1Blue cells, 30 min pretreatment, 250 ng/mL LPS for 24 h, alkaline phosphatase in supernatant, read-out: AP Production IC50. The protocol:
THP-1 cells are a human monocyte cell line that was developed from a monocyte isolated from the peripheral blood of an acute monocytic leukemia patient. This cell line is used as a monocyte/macrophage model in immunology research. The THP-1Blue cells obtained from InvivoGen (San Diego, CA, USA) are THP-1 cells that were stably transfected with a secreted embryonic alkaline phosphatase gene that is under control of a NF-κB/AP-1-inducible promoter. For this study, THP-1Blue cells were cultured at 37 °C in a humidified atmosphere containing 5% CO2 in RPMI 1640 medium (Mediatech Inc., Herndon, VA, USA) supplemented with 10% (v/v) fetal bovine serum (FBS), 100 μg/mL streptomycin, 100 U/mL penicillin, 100 μg/mL phleomycin (Zeocin), and 10 μg/mL blasticidin S (all from Sigma-Aldrich, St. Louis, MO, USA).
To measure the activation of AP-1/NF-κB, the THP-1Blue cells (2 × 10^5 cells/well) were pretreated with the test compounds or dimethyl sulfoxide (DMSO; 1% final concentration) for 30 min, followed by the addition of 250 ng/mL of lipopolysaccharide (LPS; from Escherichia coli strain 0111:B4) for 24 h, and alkaline phosphatase activity was measured in the cell supernatants using the QUANTI-Blue mix (InvivoGen) as the absorbance at 655 nm and compared with positive control samples (LPS). The concentration of the compound that caused 50% inhibition of the NF-κB reporter activity (IC50) was calculated.

In the next data set the test system is THP-1Blue cells. The data set is described as follows: Cytotoxicity, CellTiter-Glo Luminescent Cell Viability Assay. The data set is classed as cell-based, human. The settings on record: 24 h, concentrations up to 50 µM. The protocol:
Cytotoxicity was analyzed with a CellTiter-Glo Luminescent Cell Viability Assay Kit from Promega (Madison, WI, USA) according to the manufacturer’s protocol. THP-1Blue cells were treated with varying concentrations of the test compounds (up to 50 µM) and cultivated for 24 h. After treatment, the cells were allowed to equilibrate to room temperature for 30 min, the substrate was added, and the samples were analyzed with a Fluoroscan Ascent FL (Thermo Fisher Scientific, Waltham, MA, USA).
On the technique in general: Cellular ATP, detected with luciferase, serves as a proxy for viable cell number.

The nature of another data set: Solubility in DMSO. The data set is classed as physicochemical.

T2 sequence (P45983 whole entry): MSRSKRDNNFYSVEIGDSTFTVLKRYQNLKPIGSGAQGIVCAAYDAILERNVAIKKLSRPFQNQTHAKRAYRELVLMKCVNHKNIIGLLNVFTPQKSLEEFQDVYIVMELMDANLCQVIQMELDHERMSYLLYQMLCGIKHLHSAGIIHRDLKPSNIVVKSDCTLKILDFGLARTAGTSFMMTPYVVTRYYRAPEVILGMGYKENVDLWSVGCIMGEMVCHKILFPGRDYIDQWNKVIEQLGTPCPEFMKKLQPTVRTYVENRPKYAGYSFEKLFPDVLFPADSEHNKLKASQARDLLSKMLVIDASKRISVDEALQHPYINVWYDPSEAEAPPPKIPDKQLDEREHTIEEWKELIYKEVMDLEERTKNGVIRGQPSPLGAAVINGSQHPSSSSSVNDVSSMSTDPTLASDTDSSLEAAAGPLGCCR
T1 sequence (P45984 whole entry): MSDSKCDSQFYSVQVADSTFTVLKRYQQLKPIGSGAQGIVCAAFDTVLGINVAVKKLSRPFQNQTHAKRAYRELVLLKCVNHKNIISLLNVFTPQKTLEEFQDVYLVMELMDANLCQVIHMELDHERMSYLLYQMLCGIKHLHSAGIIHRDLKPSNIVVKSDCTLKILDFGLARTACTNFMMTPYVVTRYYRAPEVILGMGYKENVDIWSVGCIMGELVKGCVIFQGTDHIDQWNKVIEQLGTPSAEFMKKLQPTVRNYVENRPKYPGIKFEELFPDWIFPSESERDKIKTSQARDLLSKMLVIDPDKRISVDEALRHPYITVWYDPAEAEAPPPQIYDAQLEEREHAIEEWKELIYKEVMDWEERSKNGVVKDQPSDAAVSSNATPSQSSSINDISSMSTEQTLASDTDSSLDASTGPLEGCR
T3 sequence (P53779 whole entry): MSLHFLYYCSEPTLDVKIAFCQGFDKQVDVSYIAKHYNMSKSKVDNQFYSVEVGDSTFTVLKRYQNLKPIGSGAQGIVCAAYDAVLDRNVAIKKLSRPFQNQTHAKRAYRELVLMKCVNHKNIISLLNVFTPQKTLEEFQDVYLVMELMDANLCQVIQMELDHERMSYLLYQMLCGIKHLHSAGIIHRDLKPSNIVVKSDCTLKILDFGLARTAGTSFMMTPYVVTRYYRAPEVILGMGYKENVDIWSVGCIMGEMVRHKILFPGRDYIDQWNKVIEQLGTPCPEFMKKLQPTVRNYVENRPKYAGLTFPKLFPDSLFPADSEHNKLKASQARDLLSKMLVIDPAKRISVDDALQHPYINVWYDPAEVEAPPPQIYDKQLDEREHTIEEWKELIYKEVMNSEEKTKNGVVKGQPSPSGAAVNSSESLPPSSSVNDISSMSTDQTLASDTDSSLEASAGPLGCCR

A word on the IC50: it is the point on the concentration scale where inhibition reaches its midpoint. For the compound `COc1cc(/C=c2/c(=O)[nH]n3c(=O)c4ccccc4nc23)cc(OC)c1OC` [A], the values for the IC50 on 5-lipoxygenase (5-LOX) and at cyclooxygenase 2 (COX-2) were 2.3 µM and 0.047 µM, respectively. The “selectivity toward COX-2 versus COX-1” value in the data set with cyclooxygenase 2 (COX-2) (COX-2 versus COX-1) is given as “about 14 fold”. Also, the reduction of edema in data set [1] is listed as 39%. Besides, the gastric ulcerogenic effects entry in data set [2] is “did not exhibit gastric ulcerogenic effects”.

By melting point is commonly meant the temperature of the solid-liquid transition. In general, Kd refers to the free concentration of one partner at which half of the binding sites on the other are occupied at equilibrium, for simple one-to-one binding. Turning to `NC(=O)c1cnn2c1nc(OCc1ccc(S(N)(=O)=O)cc1)c1ccccc12` [13i, 5-[(4-Sulfamoylbenzyl)oxy]pyrazolo[1,5-a]quinazoline-3-carboxamide], the melting point was in the range of 167 to 168 °C. Besides, the Kd at JNK2 is 18.5 ± 2.3 µM. Also, the Kd on JNK1 came to 10.9 ± 1.4 µM. The Kd on JNK3 turned out to be 9 ± 1.2 µM. The IC50 in [3] (Homo sapiens) was determined as 9.7 ± 2.4 µM. Besides, the Cytotoxicity entry in the data set with THP-1Blue cells is recorded as “N.T. (no cytotoxicity was found in THP-1Blue cells at concentrations up to 50 µM)”.

Compound `NC(=O)c1cnn2c1nc(OCc1ccccc1)c1ccccc12` [13b, 5-(Benzyloxy)pyrazolo[1,5-a]quinazoline-3-carboxamide] returned a melting point of 208 to 209 °C. Besides, the “solubility in DMSO” value in the data set “Solubility in DMSO” is recorded as “low solubility in DMSO”. For the same compound, the IC50 in [3] (Homo sapiens) came to 4.81 µM. For the same compound, in data set [3], the IC50 came to 4.8 ± 1.2 µM. In addition, the Cytotoxicity result with THP-1Blue cells is “N.T. (no cytotoxicity was found in THP-1Blue cells at concentrations up to 50 µM)”.
